{"source": "patent US10112958B2", "about": "“N-[2-(2-amino-6,6-disubstituted-4,4a,5,6-tetrahydropyrano[3,4-d][1,3]thiazin-8a(8H)-YL)-1,3-thiazol-4-YL] amides” (Pfizer Inc., priority 2015, dated 2018)", "data": [{"biological_target": "T1, BACE1 enzyme (Homo sapiens, UniProt P56817)", "T1 construct": "transfected with a soluble BACE construct (BACE1deltaTM96His); His (C); made in house; host or cells: CHO-K1 cells (secreted into conditioned media)", "T1 sequence (P56817 46-457 limits assumed)": "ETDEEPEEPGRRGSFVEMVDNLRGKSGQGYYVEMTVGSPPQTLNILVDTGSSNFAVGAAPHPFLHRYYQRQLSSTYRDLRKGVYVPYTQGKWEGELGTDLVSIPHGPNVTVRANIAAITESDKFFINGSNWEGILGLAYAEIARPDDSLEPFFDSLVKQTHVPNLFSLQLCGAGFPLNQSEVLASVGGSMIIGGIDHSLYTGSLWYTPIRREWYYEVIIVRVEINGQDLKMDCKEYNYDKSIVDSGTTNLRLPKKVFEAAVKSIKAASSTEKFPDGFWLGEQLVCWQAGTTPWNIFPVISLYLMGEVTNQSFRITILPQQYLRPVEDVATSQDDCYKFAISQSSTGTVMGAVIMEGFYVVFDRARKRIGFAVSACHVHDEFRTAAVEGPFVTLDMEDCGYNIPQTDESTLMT", "assay": "BACE1 Cell-Free Assay (fluorescence polarization, cleavage of synthetic APP substrate)", "assay_type": "biochemical", "details": "geometric mean of 2-4 determinations unless otherwise indicated (b: ≥5 determinations; c: single determination); 0.1 nM BACE1, 150 nM peptide substrate, pH 4.5, 3 hours at 37° C.", "description": "BACE1 Cell-Free Assay: Beta-secretase (BACE) is one of the enzymes involved in the generation of the amyloid beta peptide found in the amyloid plaques of Alzheimer's disease patients. This assay measures the inhibition of the beta-secretase enzyme as it cleaves a non-native peptide.\nA synthetic APP substrate that can be cleaved by beta-secretase having N-terminal biotin and made fluorescent by the covalent attachment of Oregon Green at the Cys residue is used to assay beta-secretase activity in the presence or absence of the inhibitory compounds. The substrate is Biotin-GLTNIKTEEISEISY^EVEFR-C[Oregon Green]KK-OH. The BACE1 enzyme is affinity purified material from conditioned media of CHO-K1 cells that have been transfected with a soluble BACE construct (BACE1deltaTM96His). Compounds are incubated in a ½ log dose response curve from a top concentration of 100 μM with BACE1 enzyme and the biotinylated fluorescent peptide in 384-well black plates (Thermo Scientific #4318). BACE1 is at a final concentration of 0.1 nM with a final concentration of peptide substrate of 150 nM in a reaction volume of 30 μL assay buffer [100 mM sodium acetate, pH 4.5 (brought to pH with acetic acid), and 0.001% Tween-20]. Plates are covered and incubated for 3 hours at 37° C. The reaction is stopped with the addition of 30 μL of 1.5 μM Streptavidin (Pierce, #21125). After a 10 minute incubation at room temperature, plates are read on a PerkinElmer EnVision for fluorescence polarization (Ex485 nm/Em530 nm). The activity of the beta-secretase enzyme is detected by changes in the fluorescence polarization that occur when the substrate is cleaved by the enzyme.", "units": {"IC50": "µM"}, "values": [{"smiles": "NC1=N[C@@]2(c3nc(NC(=O)c4ccc(OC(F)F)cn4)cs3)COC3(CCC3)C[C@H]2CS1", "note": "(racemic) [Example 3, N-{2-[cis-2′-amino-4a′,5′-dihydro-4′H-spiro[cyclobutane-1,6′-pyrano[3,4-d][1,3]thiazin]-8a′(8′H)-yl]-1,3-thiazol-4-yl}-5-(difluoromethoxy)pyridine-2-carboxamide]", "IC50": 0.252}, {"smiles": "CC#CCOc1ccc(C(=O)Nc2csc([C@@]34COC(C)(C)C[C@@H]3CSC(N)=N4)n2)nc1", "note": "(single isomer, unassigned) [Example 1]", "IC50": 31}, {"smiles": "CC#CCOc1ccc(C(=O)Nc2csc([C@]34COC(C)(C)C[C@H]3CSC(N)=N4)n2)nc1", "note": "(single isomer, unassigned) [Example 2]", "IC50": 0.088}, {"smiles": "NC1=N[C@]2(c3nc(NC(=O)c4ccc(OC(F)F)cn4)cs3)COC3(CCC3)C[C@@H]2CS1", "note": "(single isomer, unassigned) [Example 4, N-{2-[(4a′S,8a′S)-2′-amino-4a′,5′-dihydro-4′H-spiro[cyclobutane-1,6′-pyrano[3,4-d] [1,3]thiazin]-8a′(8′H)-yl]-1,3-thiazol-4-yl}-5-(difluoromethoxy)pyridine-2-carboxamide]", "IC50": "> 21.1"}, {"smiles": "NC1=N[C@@]2(c3nc(NC(=O)c4ccc(OC(F)F)cn4)cs3)COC3(CCC3)C[C@H]2CS1", "note": "(single isomer, unassigned) [Example 5, N-{2-[(4a′R,8a′R)-2′-amino-4a′,5′-dihydro-4′H-spiro[cyclobutane-1,6′-pyrano[3,4-d] [1,3]thiazin]-8a′(8′H)-yl]-1,3-thiazol-4-yl}-5-(difluoromethoxy)pyridine-2-carboxamide]", "IC50": 0.138}, {"smiles": "CC1(C)C[C@@H]2CSC(N)=N[C@]2(c2nc(NC(=O)c3ccn(C(F)F)n3)cs2)CO1", "note": "(single isomer, unassigned) [Example 11]", "IC50": 6.96}, {"smiles": "CC1(C)C[C@H]2CSC(N)=N[C@@]2(c2nc(NC(=O)c3ccn(C(F)F)n3)cs2)CO1", "note": "(single isomer, unassigned) [Example 12]", "IC50": 0.022}, {"smiles": "CC1(C)C[C@@H]2CSC(N)=N[C@]2(c2nc(NC(=O)c3cnc(OC(F)F)cn3)cs2)CO1", "note": "(single isomer, unassigned) [Example 13]", "IC50": 7.95}, {"smiles": "CC1(C)C[C@H]2CSC(N)=N[C@@]2(c2nc(NC(=O)c3cnc(OC(F)F)cn3)cs2)CO1", "note": "(single isomer, unassigned) [Example 14]", "IC50": 0.167}, {"smiles": "CC1(C)C[C@@H]2CSC(N)=N[C@]2(c2nc(NC(=O)c3ccc(OC(F)F)cn3)cs2)CO1", "note": "(single isomer, unassigned) [Example 15]", "IC50": 22.2}, {"smiles": "CC(F)(F)Oc1ccc(C(=O)Nc2csc([C@@]34COC(C)(C)C[C@@H]3CSC(N)=N4)n2)nc1", "note": "(single isomer, unassigned) [Example 16]", "IC50": 28.5}, {"smiles": "CC(F)(F)Oc1ccc(C(=O)Nc2csc([C@]34COC(C)(C)C[C@H]3CSC(N)=N4)n2)nc1", "note": "(single isomer, unassigned) [Example 17]", "IC50": 0.416}, {"smiles": "CC(F)(F)COc1cnc(C(=O)Nc2csc([C@@]34COC(C)(C)C[C@@H]3CSC(N)=N4)n2)cn1", "note": "(single isomer, unassigned) [Example 18]", "IC50": 61.7}, {"smiles": "CC(F)(F)COc1cnc(C(=O)Nc2csc([C@]34COC(C)(C)C[C@H]3CSC(N)=N4)n2)cn1", "note": "(single isomer, unassigned) [Example 19]", "IC50": 0.421}, {"smiles": "CC#CCOc1cnc(C(=O)Nc2csc([C@@]34COC(C)(C)C[C@@H]3CSC(N)=N4)n2)cn1", "note": "(single isomer, unassigned) [Example 20]", "IC50": 15.5}, {"smiles": "CC#CCOc1cnc(C(=O)Nc2csc([C@]34COC(C)(C)C[C@H]3CSC(N)=N4)n2)cn1", "note": "(single isomer, unassigned) [Example 21]", "IC50": 0.041}, {"smiles": "CC1(C)C[C@@H]2CSC(N)=N[C@]2(c2nc(NC(=O)c3coc(CF)n3)cs2)CO1", "note": "(single isomer, unassigned) [Example 22]", "IC50": 15.1}, {"smiles": "CC1(C)C[C@H]2CSC(N)=N[C@@]2(c2nc(NC(=O)c3coc(CF)n3)cs2)CO1", "note": "(single isomer, unassigned) [Example 23]", "IC50": 0.017}, {"smiles": "Cc1cc(OC(F)F)cnc1C(=O)Nc1csc([C@@]23COC(C)(C)C[C@@H]2CSC(N)=N3)n1", "note": "(single isomer, unassigned) [Example 25]", "IC50": 14.8}, {"smiles": "NC1=N[C@]2(c3nc(NC(=O)c4ccc(OC(F)F)cn4)cs3)COC3(CC3)C[C@@H]2CS1", "note": "(single isomer, unassigned) [Example 38, N-{2-[(4a′S,8a′S)-2′-amino-4a′,5′-dihydro-4′H-spiro[cyclopropane-1,6′-pyrano[3,4-d][1,3]thiazin]-8a′(8′H)-yl]-1,3-thiazol-4-yl}-5-(difluoromethoxy)pyridine-2-carboxamide]", "IC50": 34.5}, {"smiles": "NC1=N[C@@]2(c3nc(NC(=O)c4ccc(OC(F)F)cn4)cs3)COC3(CC3)C[C@H]2CS1", "note": "(single isomer, unassigned) [Example 39, N-{2-[(4a′R,8a′R)-2′-amino-4a′,5′-dihydro-4′H-spiro[cyclopropane-1,6′-pyrano[3,4-d] [1,3]thiazin]-8a′(8′H)-yl]-1,3-thiazol-4-yl}-5-(difluoromethoxy)pyridine-2-carboxamide]", "IC50": 0.314}, {"smiles": "NC1=N[C@@]2(c3nc(NC(=O)c4ccc(Cl)cn4)cs3)COC3(CCC3)C[C@H]2CS1", "note": "[Example 6, N-{2-[(4a′R,8a′R)-2′-amino-4a′,5′-dihydro-4′H-spiro[cyclobutane-1,6′-pyrano[3,4-d][1,3]thiazin]-8a′(8′H)-yl]-1,3-thiazol-4-yl}-5-chloropyridine-2-carboxamide]", "IC50": 0.088}, {"smiles": "CC1(C)C[C@H]2CSC(N)=N[C@@]2(c2nc(NC(=O)c3ccc(OC(F)F)cn3)cs2)CO1", "note": "[Example 7, N-{2-[(4aR,8aR)-2-amino-6,6-dimethyl-4,4a,5,6-tetrahydropyrano[3,4-d][1,3]thiazin-8a(8H)-yl]-1,3-thiazol-4-yl}-5-(difluoromethoxy)pyridine-2-carboxamide]", "IC50": 0.116}, {"smiles": "CC[C@@]1(C)C[C@H]2CSC(N)=N[C@@]2(c2nc(NC(=O)c3ccc(OC(F)F)cn3)cs2)CO1", "note": "[Example 8, N-{2-[(4aR,6S,8aR)-2-amino-6-ethyl-6-methyl-4,4a,5,6-tetrahydropyrano[3,4-d] [1,3]thiazin-8a(8H)-yl]-1,3-thiazol-4-yl}-5-(difluoromethoxy)pyridine-2-carboxamide]", "IC50": 0.041}, {"smiles": "COC[C@@]1(C)C[C@H]2CSC(N)=N[C@@]2(c2nc(NC(=O)c3ccc(OC(F)F)cn3)cs2)CO1", "note": "[Example 9, N-{2-[(4aR,6R,8aR)-2-amino-6-(methoxymethyl)-6-methyl-4,4a,5,6-tetrahydropyrano[3,4-d][1,3]thiazin-8a(8H)-yl]-1,3-thiazol-4-yl}-5-(difluoromethoxy) pyridine-2-carboxamide]", "IC50": 0.105}, {"smiles": "NC1=N[C@@]2(c3nc(NC(=O)c4ccc(OC(F)F)cn4)cs3)COC(CF)(CF)C[C@H]2CS1", "note": "[Example 10, N-{2-[(4aR,8aR)-2-amino-6,6-bis(fluoromethyl)-4,4a,5,6-tetrahydropyrano[3,4-d][1,3]thiazin-8a(8H)-yl]-1,3-thiazol-4-yl}-5-(difluoromethoxy)pyridine-2-carboxamide]", "IC50": 0.565}, {"smiles": "Cc1cc(OC(F)F)cnc1C(=O)Nc1csc([C@]23COC(C)(C)C[C@H]2CSC(N)=N3)n1", "note": "[Example 24, N-{2-[(4aR,8aR)-2-amino-6,6-dimethyl-4,4a,5,6-tetrahydropyrano[3,4-d][1,3]thiazin-8a(8H)-yl]-1,3-thiazol-4-yl}-5-(difluoromethoxy)-3-methylpyridine-2-carboxamide]", "IC50": 0.047}, {"smiles": "CC[C@@]1(C)C[C@@H]2CSC(N)=N[C@]2(c2nc(NC(=O)c3ccc(OC(F)F)cn3)cs2)CO1", "note": "[Example 26, N-{2-[(4aS,6S,8aS)-2-amino-6-ethyl-6-methyl-4,4a,5,6-tetrahydropyrano[3,4-d][1,3]thiazin-8a(8H)-yl]-1,3-thiazol-4-yl}-5-(difluoromethoxy)pyridine-2-carboxamide]", "IC50": 0.406}, {"smiles": "CC[C@]1(C)C[C@H]2CSC(N)=N[C@@]2(c2nc(NC(=O)c3ccc(OC(F)F)cn3)cs2)CO1", "note": "[Example 27, N-{2-[(4aR,6R,8aR)-2-amino-6-ethyl-6-methyl-4,4a,5,6-tetrahydropyrano[3,4-d][1,3]thiazin-8a(8H)-yl]-1,3-thiazol-4-yl}-5-(difluoromethoxy)pyridine-2-carboxamide]", "IC50": 1.83}, {"smiles": "CC[C@]1(C)C[C@@H]2CSC(N)=N[C@]2(c2nc(NC(=O)c3ccc(OC(F)F)cn3)cs2)CO1", "note": "[Example 28, N-{2-[(4aS,6R,8aS)-2-amino-6-ethyl-6-methyl-4,4a,5,6-tetrahydropyrano[3,4-d][1,3]thiazin-8a(8H)-yl]-1,3-thiazol-4-yl}-5-(difluoromethoxy)pyridine-2-carboxamide]", "IC50": 14.8}]}]}
